In PubChem BioAssay AID1963825 (Molecular Pharmacology Branch, DTP, NCI, 2024):

Assay: Anticancer human tumor 997537-175-T-J1-PDC patient-derived colon adenocarcinoma cell line growth inhibition [POLQ]
Conditions: 997537-175-T-J1-PDC complex spheroid viability, combination with POLQ inhibitors; for IC50: curve of first compound; for viability, T/C: stronger effect = lower value; active = viability on the fitted dose curve at most 10% of control; inactive = the rest
Summary of the method: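 Patient-derived tumour cells were co-cultured with HUVEC and mesenchymal stem cells as multicellular spheroids at 37 °C. They were treated with POLQ inhibitors (novobiocin, ART-558, RP6685) alone or combined with other agents. Top concentrations were at or near clinical Cmax (otherwise 10 microM; SN-38 at 1 microM), decreasing in half-log steps.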
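Note: luminescence signal used as a surrogate for viable cells; spheroids exposed to drugs for seven days before readout.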

Cn1ncnc1[C@H]1c2n[nH]c(=O)c3cc(F)cc(c23)N[C@@H]1c1ccc(F)cc1 + Cc1cccc(N(C)C(=O)C2C(O)CCN2c2nc(C)cc(C(F)(F)F)c2C#N)c1
inactive: viability, T/C (second compound 0.0316 µM, first compound 0.000316 µM) 98% | viability, T/C (second compound 0.0316 µM, first compound 0.001 µM) 109% | viability, T/C (second compound 0.0316 µM, first compound 0.00316 µM) 93.5% | viability, T/C (second compound 0.0316 µM, first compound 0.01 µM) 98.6% | viability, T/C (second compound 0.0316 µM, first compound 0.0316 µM) 110% | viability, T/C (second compound 0.0316 µM, first compound 0.1 µM) 90% | viability, T/C (second compound 0.1 µM, first compound 0.000316 µM) 94.8% | viability, T/C (second compound 0.1 µM, first compound 0.001 µM) 113% | viability, T/C (second compound 0.1 µM, first compound 0.00316 µM) 76.2% | viability, T/C (second compound 0.1 µM, first compound 0.01 µM) 119% | viability, T/C (second compound 0.1 µM, first compound 0.0316 µM) 113% | viability, T/C (second compound 0.1 µM, first compound 0.1 µM) 97.6% | viability, T/C (second compound 0.316 µM, first compound 0.000316 µM) 90.6% | viability, T/C (second compound 0.316 µM, first compound 0.001 µM) 102% | viability, T/C (second compound 0.316 µM, first compound 0.00316 µM) 94.3% | viability, T/C (second compound 0.316 µM, first compound 0.01 µM) 94.6% | viability, T/C (second compound 0.316 µM, first compound 0.0316 µM) 91.1% | viability, T/C (second compound 0.316 µM, first compound 0.1 µM) 91.4% | viability, T/C (second compound 1 µM, first compound 0.000316 µM) 92.6% | viability, T/C (second compound 1 µM, first compound 0.001 µM) 109% | viability, T/C (second compound 1 µM, first compound 0.00316 µM) 96.1% | viability, T/C (second compound 1 µM, first compound 0.01 µM) 100% | viability, T/C (second compound 1 µM, first compound 0.0316 µM) 98.3% | viability, T/C (second compound 1 µM, first compound 0.1 µM) 84.4% | viability, T/C (second compound 3.16 µM, first compound 0.000316 µM) 105% | viability, T/C (second compound 3.16 µM, first compound 0.001 µM) 109% | viability, T/C (second compound 3.16 µM, first compound 0.00316 µM) 95.6% | viability, T/C (second compound 3.16 µM, first compound 0.01 µM) 91.5% | viability, T/C (second compound 3.16 µM, first compound 0.0316 µM) 92.1% | viability, T/C (second compound 3.16 µM, first compound 0.1 µM) 94.7% | viability, T/C (second compound 10 µM, first compound 0.000316 µM) 102% | viability, T/C (second compound 10 µM, first compound 0.001 µM) 93.1% | viability, T/C (second compound 10 µM, first compound 0.00316 µM) 89.8% | viability, T/C (second compound 10 µM, first compound 0.01 µM) 84.4% | viability, T/C (second compound 10 µM, first compound 0.0316 µM) 84.4% | viability, T/C (second compound 10 µM, first compound 0.1 µM) 99.3%
> 0.1 µM: IC50 (second compound 0.0316 µM) | IC50 (second compound 0.1 µM) | IC50 (second compound 0.316 µM) | IC50 (second compound 1 µM) | IC50 (second compound 3.16 µM) | IC50 (second compound 10 µM)
